Experimental data taken from patent US11447497B2, “(S)-3-(2-(4-(benzyl)-3-oxopiperazin-1-yl)acetamido)-4-oxo-5-(2,3,5,6-tetrafluorophenoxy)pentanoic acid derivatives and related compounds as caspase inhibitors for treating cardiovascular diseases” (HISTOGEN, INC., priority 2018, dated 2022).

Assays:
Assay type in all cases: biochemical
Caspase-1 = Caspase-1 (Homo sapiens (Human), UniProt P29466); experiment: Caspase-1 assay, inhibition of caspase activity (Ac-YVAD-pNA substrate); settings: human caspase-1, Ac-YVAD-pNA 200 μM, read at 405 nm
Method: (§1) Assay for the Inhibition of Caspase Activity and Determination of IC50 Values
(§2) Human caspases were purchased from Enzo Biosciences and used according to the manufacturer's instructions. An exemplary caspase assay, for Caspase-1, is provided below:
Caspase-1 was diluted to 10 U/μl in assay buffer consisting of 50 mM HEPES, pH 7.4, 100 mM NaCl, 0.1% CHAPS, 1 mM EDTA, 10% glycerol and 10 mM DTT.
45 μl of assay buffer was added into ½ volume microtiter plate. The plate was allowed to equilibrate to assay temperature. 5 μl of Caspase-1 (10 U/μl) was added to each appropriate well. Two 2 blank wells containing just assay buffer without Caspase-1 were included on the plate.
The reaction was started by the addition of 50 μl Ac-YVAD-pNA substrate, for a final substrate concentration of 200 μM. The reaction was continuously monitored at 405 nm.
(§3) The data was graphed as OD405 nm vs time, and the slope was determined over the linear portion of the curve. The rates in OD/min were converted to substrate/min using an extinction coefficient for p-nitroaniline of 10,500 M-1 cm-1, and were adjusted for pathlength of sample. Similarly assays were conducted for Caspase-3, Caspase-8 and Caspase-9. The Table below provides a summary of the binding data for the compounds prepared according to Examples 1-4: […]

Caspase-3 = Caspase-3 (Homo sapiens (Human), UniProt P42574); experiment: Caspase-3 assay, inhibition of caspase activity; settings: human caspase-3
Method: as §1, §2, §3

Caspase-8 = Caspase-8 (Homo sapiens (Human), UniProt Q14790); experiment: Caspase-8 assay, inhibition of caspase activity; settings: human caspase-8
Method: as §1, §2, §3

Caspase-9 = Caspase-9 (Homo sapiens (Human), UniProt P55211); experiment: Caspase-9 assay, inhibition of caspase activity; settings: human caspase-9
Method: as §1, §2, §3

Chain of Caspase-3 (P42574 29-175): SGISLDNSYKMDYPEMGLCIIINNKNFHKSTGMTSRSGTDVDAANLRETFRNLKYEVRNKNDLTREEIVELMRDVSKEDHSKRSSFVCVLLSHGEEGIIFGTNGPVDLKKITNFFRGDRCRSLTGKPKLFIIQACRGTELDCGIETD
Chain of Caspase-3 (P42574 176-277): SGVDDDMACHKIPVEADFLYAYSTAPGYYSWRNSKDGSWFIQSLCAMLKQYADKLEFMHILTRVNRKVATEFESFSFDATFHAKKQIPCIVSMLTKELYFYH
Chain of Caspase-9 (P55211 1-315): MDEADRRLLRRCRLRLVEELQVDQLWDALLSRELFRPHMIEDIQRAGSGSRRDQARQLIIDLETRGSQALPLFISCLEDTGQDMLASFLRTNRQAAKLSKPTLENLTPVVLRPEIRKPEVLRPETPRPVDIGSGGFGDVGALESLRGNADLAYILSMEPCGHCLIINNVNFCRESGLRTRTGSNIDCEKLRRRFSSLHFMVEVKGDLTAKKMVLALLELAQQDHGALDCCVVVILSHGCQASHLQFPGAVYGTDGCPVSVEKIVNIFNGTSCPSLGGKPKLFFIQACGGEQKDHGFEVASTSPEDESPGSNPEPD
Chain of Caspase-9 (P55211 331-416): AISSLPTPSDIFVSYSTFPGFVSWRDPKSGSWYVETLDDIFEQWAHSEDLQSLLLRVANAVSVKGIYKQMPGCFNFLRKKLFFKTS
Chain of Caspase-8 (Q14790 217-374): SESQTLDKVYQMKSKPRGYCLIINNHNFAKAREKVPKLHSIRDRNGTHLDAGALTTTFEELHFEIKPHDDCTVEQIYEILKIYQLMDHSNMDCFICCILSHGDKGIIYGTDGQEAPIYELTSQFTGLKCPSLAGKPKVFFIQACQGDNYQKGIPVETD
Chain of Caspase-8 (Q14790 385-479): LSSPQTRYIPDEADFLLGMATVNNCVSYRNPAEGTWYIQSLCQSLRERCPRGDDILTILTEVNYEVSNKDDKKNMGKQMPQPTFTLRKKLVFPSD
Chain of Caspase-1 (P29466 120-297): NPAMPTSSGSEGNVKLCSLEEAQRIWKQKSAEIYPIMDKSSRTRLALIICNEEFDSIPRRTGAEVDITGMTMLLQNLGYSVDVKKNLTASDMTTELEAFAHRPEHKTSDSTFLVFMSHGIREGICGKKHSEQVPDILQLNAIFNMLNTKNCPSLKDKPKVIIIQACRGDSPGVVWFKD
Chain of Caspase-1 (P29466 317-404): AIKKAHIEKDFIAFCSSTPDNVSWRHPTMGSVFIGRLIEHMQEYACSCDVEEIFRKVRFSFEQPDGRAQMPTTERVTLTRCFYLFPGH

IC50 (Caspase-1)	IC50 (Caspase-3)	IC50 (Caspase-8)	IC50 (Caspase-9)	Compound
9 nM	132 nM	132 nM	122 nM	O=C(O)C[C@H](NC(=O)CN1CCN(Cc2ccccc2)C(=O)C1)C(=O)COc1c(F)c(F)cc(F)c1F [Example 1, (S)-3-(2-(4-Benzyl-3-oxopiperazin-1-yl)acetamido)-4-oxo-5-(2,3,5,6-tetrafluorophenoxy)pentanoic acid]
4 nM	32 nM	28 nM	38 nM	O=C(O)C[C@H](NC(=O)CN1CCN(Cc2ccccc2)CC1=O)C(=O)COc1c(F)c(F)cc(F)c1F [Example 2, (S)-3-(2-(4-Benzyl-2-oxopiperazin-1-yl)acetamido)-4-oxo-5-(2,3,5,6-tetrafluorophenoxy)pentanoic acid]
65 nM	1000 nM	396 nM	1000 nM	O=C(O)C[C@H](NC(=O)CN1CCN(Cc2ccccc2)C(=O)C1)C(=O)COc1ccnc(C(F)(F)F)n1 [Example 3, (S)-3-(2-(4-Benzyl-3-oxopiperazin-1-yl)acetamido)-4-oxo-5-((2-(trifluoromethyl)pyrimidin-4-yl)oxy)pentanoic acid]
2 nM	200 nM	1 nM	107 nM	O=C(O)C[C@H](NC(=O)CN1CCN(S(=O)(=O)c2ccccc2)CC1)C(=O)COc1c(F)c(F)cc(F)c1F [Example 4, (S)-4-oxo-3-(2-(4-(phenylsulfonyl)piperazin-1-yl)acetamido)-5-(2,3,5,6-tetrafluorophenoxy)pentanoic acid]
